Consider ten molecules from ChEMBL document CHEMBL1201862, “PubChem BioAssay data set” (2004).

Common to all, as to test: NCI anticancer screen, dose series, 48 h
Experiment [1] relates to RXF 393.
Experiment [2] deals with SNB-19.
In experiment [3] the test system is OVCAR-3.
Experiment [4] has as its system Malme-3M.
Experiment [5] relates to CCRF-CEM.
Experiment [6] concerns NCI-H460.
For experiment [7], the system named is HCC 2998.
Experiment [8] has as its system UO-31.
The test system of experiment [9] is SW-620.
Experiment [10] deals with EKVX.
Experiment [11] relates to SK-MEL-5.
Experiment [12] has as its system SF-295.
Experiment [13] deals with A498.
For experiment [14], the system named is 786-0.
Experiment [15] deals with MDA-MB-231.
The test system of experiment [16] is MOLT-4.
The test system of experiment [17] is Hs-578T.
Experiment [18] has as its system T47D.
For experiment [19], the system named is SR.
For experiment [20], the system named is OVCAR-5.

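Results reflect a 48-hour exposure of cells in 96-well plates to compound at five concentrations. Here, GI50 denotes the concentration required for 50% inhibition of growth.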 Calls of active or inactive are those of the source. Rule as the data show it: active = GI50 up to about 1.1 µM and inactive = higher.

On to `O=C1C(Cl)=C(N2CCN(CCOCCO)CC2)C(=O)c2ccccc21`, for which the GI50 was 3.13 µM (inactive) in [1]; 23.8 µM (inactive) in [2]; 2.85 µM (inactive) in experiment [3]; 6.07 µM (inactive) in experiment [4]; 2.33 µM (inactive) in experiment [5]; 17.9 µM (inactive) in experiment [6]. Also, the GI50 is 18.2 µM (inactive) in experiment [7]; 7.73 µM (inactive) in experiment [8]; 1.72 µM (inactive) in [9]; 18.4 µM (inactive) in experiment [10]; 14.7 µM (inactive) in [11]; 18 µM (inactive) in [12]. Besides, the GI50 is 18.5 µM (inactive) in experiment [13]; 11.7 µM (inactive) in experiment [14]; 4.43 µM (inactive) in experiment [15]; 2.05 µM (inactive) in experiment [16]; 19.1 µM (inactive) in experiment [17]; 1.85 µM (inactive) in experiment [18]. For the same molecule, the results for the GI50 in experiment [19] and in experiment [20] were 2.72 µM (inactive) and 22.4 µM (inactive), respectively.

In the case of `CCOC(=O)/C(=C\c1ccccc1)C(=O)CCN1CCOCC1`, the GI50 was 2.86 µM (inactive) in experiment [1]; 16.2 µM (inactive) in experiment [2]; 7.41 µM (inactive) in experiment [3]; 2.7 µM (inactive) in experiment [4]; 1.29 µM (inactive) in [5]; 14.4 µM (inactive) in [6]. Moreover, the GI50 in experiment [7] was 17.8 µM (inactive); in experiment [8], 16.9 µM (inactive); in [9] it was 2.33 µM (inactive); in experiment [10], 15.6 µM (inactive); in experiment [11], 12.6 µM (inactive); in experiment [12], 19.2 µM (inactive). Besides, the GI50 in [13] is 16.7 µM (inactive); in experiment [14], 7.78 µM (inactive); in experiment [15], 13.5 µM (inactive); in [16] it was 1.99 µM (inactive); in [17], 47.1 µM (inactive); in [18] it was 16.3 µM (inactive). Also, the GI50 in experiment [19] is 2.1 µM (inactive); in [20], 17.4 µM (inactive).

On to `COc1ccc2[nH]c3c(C)c4ccnc(NCCCN(C)CCCNc5ccc([N+](=O)[O-])c6[nH]c7ccccc7c(=O)c56)c4c(C)c3c2c1`, for which the GI50 in experiment [1] was 0.0396 µM (active); in experiment [2], 0.284 µM (active); in experiment [3], 0.607 µM (active); in experiment [4] it was 0.285 µM (active); in [5], 0.212 µM (active); in [6], 0.025 µM (active). In addition, the GI50 was 0.0178 µM (active) in experiment [7]; 0.59 µM (active) in [8]; 0.00811 µM (active) in experiment [9]; 0.271 µM (active) in experiment [10]; 0.11 µM (active) in experiment [11]; 0.104 µM (active) in experiment [12]. In addition, the GI50 was 0.841 µM (active) in experiment [13]; 0.0244 µM (active) in [14]; 0.621 µM (active) in [15]; 0.005 µM (active) in [16]; 0.604 µM (active) in [17]; 0.815 µM (active) in [18]. Also, the GI50 in experiment [19] is 0.0114 µM (active); in [20], 0.607 µM (active).

In the case of `COc1cc(OC)c2c(=O)cc(-c3ccccc3F)[nH]c2c1`, the GI50 in experiment [1] is 29.8 µM (inactive); in experiment [2] it was 26 µM (inactive); in experiment [3] it was 57 µM (inactive); in experiment [4], > 100 µM (inactive); in experiment [5], 88.9 µM (inactive); in experiment [6], 37.9 µM (inactive). The GI50 was 18.6 µM (inactive) in experiment [7]; 28.6 µM (inactive) in experiment [8]; 59.3 µM (inactive) in [9]; 86.5 µM (inactive) in experiment [10]; 30.3 µM (inactive) in experiment [11]; 34.3 µM (inactive) in experiment [12]. Besides, the GI50 was 48.2 µM (inactive) in [13]; 47.9 µM (inactive) in experiment [14]; 76.7 µM (inactive) in experiment [15]; 66.2 µM (inactive) in experiment [16]; > 100 µM (inactive) in [17]; 95.1 µM (inactive) in experiment [18]. The values for the GI50 in experiment [19] and in experiment [20] were 60.8 µM (inactive) and 73.3 µM (inactive), respectively.

Regarding `COc1cccc(C2c3cc4c(cc3OC(NNC(N)=O)C2C)OCO4)c1OC` (stereo not given), the GI50 in experiment [1] was 14.1 µM (inactive); in experiment [2], 29.1 µM (inactive); in experiment [3], 17.5 µM (inactive); in experiment [4], 25.9 µM (inactive); in experiment [5], 24.7 µM (inactive); in [6] it was 23.1 µM (inactive). The GI50 in experiment [7] was 32 µM (inactive); in [8], 25.6 µM (inactive); in experiment [9] it was 22.6 µM (inactive); in experiment [10] it was 26.7 µM (inactive); in experiment [11], 19.6 µM (inactive); in experiment [12], 18.1 µM (inactive). The GI50 is 18.2 µM (inactive) in experiment [13]; 4.76 µM (inactive) in [14]; 31.7 µM (inactive) in [15]; 16.5 µM (inactive) in experiment [16]; 19.7 µM (inactive) in experiment [17]; 27.1 µM (inactive) in [18]. In addition, the GI50 in experiment [19] was 0.431 µM (active); in [20] it was 34.1 µM (inactive).

As for `COc1ccc(C(C)NNC(=O)c2cc[n+]([BH2-]C#N)cc2)cc1F` (stereo not given), the GI50 in [1], in [2], in [3], in experiment [4], in experiment [5] and in experiment [6] was > 100 µM (inactive) in each case. Moreover, the GI50 in experiment [7], in experiment [8], in [9], in experiment [10], in [11] and in experiment [12] was > 100 µM (inactive) each time. In addition, the GI50 in [13], in [14], in [15], in [16], in experiment [17] and in experiment [18] was > 100 µM (inactive) in each case. Also, the GI50 in [19] and in experiment [20] was > 100 µM (inactive) in each case.

Regarding `O=C(Nc1cc(Cl)c(I)c(Cl)c1)C(F)(F)F`, the GI50 is 16.7 µM (inactive) in experiment [1]; 35.9 µM (inactive) in [2]; 24.9 µM (inactive) in experiment [3]; > 10 µM (inactive) in [4]; 24.8 µM (inactive) in experiment [5]; 27.1 µM (inactive) in experiment [6]. For the same molecule, the GI50 in experiment [7] was 20 µM (inactive); in experiment [8], 23.6 µM (inactive); in [9], 45.3 µM (inactive); in experiment [10], 18.3 µM (inactive); in [11] it was 18.7 µM (inactive); in [12] it was 33.3 µM (inactive). Besides, the GI50 in [13] was 22.9 µM (inactive); in experiment [14], 29 µM (inactive); in [15], 30.1 µM (inactive); in [16], 26.5 µM (inactive); in [17], 22.4 µM (inactive); in experiment [18], 25.8 µM (inactive). The GI50 in experiment [19] is 30.8 µM (inactive); in [20], 22.8 µM (inactive).

As for `COc1cc(C2c3cc4c(cc3OC(NNc3ccccc3)C2C)OCO4)cc(OC)c1OC` (stereo not given), the GI50 in experiment [1] is 1.54 µM (inactive); in experiment [2], 1.32 µM (inactive); in experiment [3], 0.993 µM (active); in experiment [4], 0.935 µM (active); in [5], 0.885 µM (active); in experiment [6], 1.02 µM (active). Further, the GI50 in [7] was 0.953 µM (active); in experiment [8], 0.91 µM (active); in experiment [9], 1.4 µM (inactive); in [10] it was 1.73 µM (inactive); in experiment [11], 1.32 µM (inactive); in experiment [12] it was 0.361 µM (active). The GI50 was 2.22 µM (inactive) in experiment [13]; 1.1 µM (active) in [14]; 3.26 µM (inactive) in experiment [15]; 1.09 µM (active) in [16]; 2.96 µM (inactive) in experiment [17]; 2.43 µM (inactive) in experiment [18]. Further, the GI50 in experiment [19] was 0.673 µM (active); in [20], 1.69 µM (inactive).

On to `COc1ccc(C2c3cc4c(cc3OC3(OC)COC(=O)C23)OCO4)c(OC)c1` (stereo not given), for which the GI50 in [1] is 6.59 µM (inactive); in experiment [2], 14.2 µM (inactive); in experiment [3] it was 4.72 µM (inactive); in experiment [4] it was 8.63 µM (inactive); in [5], 4.32 µM (inactive); in experiment [6], 7.14 µM (inactive). Also, the GI50 is 30 µM (inactive) in experiment [7]; 14.9 µM (inactive) in experiment [8]; 6.43 µM (inactive) in [9]; 16.2 µM (inactive) in experiment [10]; 4.84 µM (inactive) in experiment [11]; 12.8 µM (inactive) in experiment [12]. Further, the GI50 in experiment [13] is 39.5 µM (inactive); in [14], 11.3 µM (inactive); in experiment [15], 27.1 µM (inactive); in [16], 4.91 µM (inactive); in experiment [17], 3.78 µM (inactive); in experiment [18], 29.4 µM (inactive). The GI50 is 4.49 µM (inactive) in experiment [19] and 54.7 µM (inactive) in experiment [20].

For `CCOC(=O)CC/C(=N/Nc1ccc(Cl)cc1[N+](=O)[O-])C(=O)OCC`, the GI50 in [1], in [2], in experiment [3], in experiment [4], in experiment [5] and in experiment [6] was > 100 µM (inactive) each time. Besides, the GI50 is 26.2 µM (inactive) in [7]; > 100 µM (inactive) in experiment [8]; > 100 µM (inactive) in [9]; > 100 µM (inactive) in experiment [10]; > 100 µM (inactive) in experiment [11]; > 100 µM (inactive) in experiment [12]. Also, the GI50 was 34.8 µM (inactive) in experiment [13]; > 100 µM (inactive) in experiment [14]; > 100 µM (inactive) in experiment [15]; > 100 µM (inactive) in experiment [16]; > 100 µM (inactive) in experiment [17]; 93.3 µM (inactive) in experiment [18]. Further, the GI50 in experiment [19] is 45.7 µM (inactive); in experiment [20], > 100 µM (inactive).
